Earlier results, collected in patent US12036216B2 (TAHO Pharmaceuticals Ltd., priority 2021, dated 2024).
Where a name gives a salt, the structure may show the parent alone. Read-outs that look alike come from different tables or passages of the source.

What was measured:
[1] = not given; remark: listed apart in the source
prothrombin time (PT) [2] = conditions: chimpanzee; read-out: apparent Ki for PT
[3] = not given; remark: listed apart in the source
[4] = not given; remark: listed apart in the source
prothrombin time (PT) [5] = conditions: rat; read-out: apparent Ki for PT
prothrombin time (PT) [6] = conditions: dog; read-out: apparent Ki for PT
factor Xa = conditions: dog; read-out: IC50 for anti-factor Xa activity
[7] = immediate release tablet formulation
[8] = pellets taken without the capsule shell compared with the intact capsule formulation

increase of oral bioavailability [8] [%] | Structure (SMILES) | Renal clearance as share of systemic clearance (chimpanzee) | absolute oral bioavailability (chimpanzee) [%] | clearance (CL) (chimpanzees) [mL/min/kg] | steady-state volume of distribution (Vd) (chimpanzees) [L/kg] | Renal clearance as share of systemic clearance ([1]; rat) | absolute oral bioavailability ([1]; rat) [%] | clearance (CL) ([1]; rats) | steady-state volume of distribution (Vd) ([1]; rats) | Ki (prothrombin time (PT) [2]) [µM] | time to peak apixaban plasma concentration ([3]; after oral administration in healthy adults) | bioavailability ([3]; oral) | Renal clearance as share of systemic clearance ([4]; dog) | absolute oral bioavailability ([4]; dog) [%] | clearance (CL) ([4]; dogs) [mL/min/kg] | steady-state volume of distribution (Vd) ([4]; dogs) [L/kg] | Ki (prothrombin time (PT) [5]) [µM] | Ki (prothrombin time (PT) [6]) [µM] | IC50 (factor Xa) [µM] | dissolved within 30 minutes [7]
 | COc1ccc(-n2nc(C(N)=O)c3c2C(=O)N(c2ccc(N4CCCCC4=O)cc2)CC3)cc1 [apixaban, Apixaban] | […] | […] | […] | ~0.17 | […] | […] | […] | […] | ~4.8 | […] | […] | […] | […] | ~0.67 | ~0.2 | ~1.7 | ~6.6 | […] | at least 80%
75 | CCCCCCOC(=O)NC(=N)c1ccc(NCc2nc3cc(C(=O)N(CCC(=O)OCC)c4ccccn4)ccc3n2C)cc1 [dabigatran etexilate mesylate] |  |  |  |  |  |  |  |  |  |  |  |  |  |  |  |  |  |  | 
